The record followed here is PMC6270905, “Anti-Obesity Effects of Hispidin and Alpinia zerumbet Bioactives in 3T3-L1 Adipocytes” (Molecules, 2014).

Structures are written as SMILES. Where two headings read alike, the source gives them in different places.

For this assay, the target named is T1, pancreatic lipase (Sus scrofa, UniProt P00591).
T1 construct: gene PNLIP
T1 sequence (P00591 1-450): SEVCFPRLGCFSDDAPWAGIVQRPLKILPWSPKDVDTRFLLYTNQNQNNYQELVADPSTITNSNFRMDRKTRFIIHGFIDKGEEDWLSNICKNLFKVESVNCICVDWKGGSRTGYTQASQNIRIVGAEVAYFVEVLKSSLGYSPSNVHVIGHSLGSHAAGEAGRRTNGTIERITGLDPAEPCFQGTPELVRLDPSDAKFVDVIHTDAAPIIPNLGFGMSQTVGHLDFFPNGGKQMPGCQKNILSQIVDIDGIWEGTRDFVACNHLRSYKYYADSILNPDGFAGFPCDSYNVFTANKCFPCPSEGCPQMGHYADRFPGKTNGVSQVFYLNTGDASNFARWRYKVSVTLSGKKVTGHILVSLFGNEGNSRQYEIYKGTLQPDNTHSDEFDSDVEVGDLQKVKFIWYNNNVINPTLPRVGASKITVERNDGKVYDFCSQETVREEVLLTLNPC
In words: p-nitrophenyl butyrate hydrolysis by porcine pancreatic lipase (type II), absorbance at […] nm. The class given is biochemical.

Turning to `COc1cc(/C=C/c2ccccc2)oc(=O)c1` [DK, 5,6-dehydrokawain], the IC50 (read-out: IC50 (converted)) is 326 µM.
The compound `COc1cc(CCc2ccccc2)oc(=O)c1` [DDK, dihydro-5,6-dehydrokawain] had an IC50 of 36.5 µM.
Regarding `O=c1cc(O)cc(/C=C/c2ccc(O)c(O)c2)o1` [hispidin, 6-(3,4-dihydroxylstyryl)-4-hydroxy-2-pyrone], the IC50 (read-out: IC50 (converted)) is 76.4 µM.

For orientation: IC50 means the midpoint of a concentration-inhibition curve.
